Test system: HLCM-HHs
Format: cell-based, human
Settings: 7 days
Description: As described in our previous publication (Tateno 2015), humanized liver chimeric mice (HLCM) were generated through xenotransplantation of cryopreserved or freshly isolated primary human hepatocytes (Lot:JFC, BioIVT, NY, US) into severe […] immune deficient (SCID) mice carrying a albumin enhancer/promoter-driven transgene (cDNA), urokinase type plasminogen activator, namely cDNA-uPA Tg/SCID). HLCM with blood human albumin level higher than 10 mg/mL were used for human hepatocyte isolation with two-step collagenase perfusion. The freshly isolated HLCM derived human hepatocytes (HLCM-HH) were plated on type I collagen coated culture dishes (BioCoat, Corning, NY, USA) at 1.05×10^5 cells/cm^2. […]
Total RNA was extracted with Zymo-Quick RNA micro kit (Zymo Research, CA, USA) according to the provider's protocol. […] Real-time quantitative PCR was performed with PowerUp SYBR Green Master Mix (ThermoFisher Scientific, MA, USA) and QuantStudio 5 systems (ThermoFisher Scientific) using human specific primer sets summarized in the Table 4. Relative gene expression levels were analyzed with the Delta-Dleta Ct method.

Substance: Fibrinogen
- expression of cholangiocyte/liver progenitor cell markers, TGFB2 and ANKRD1 (INVITROGRO HI (IH) and HCM media with or without fibrinogen 50 μg/mL): significantly inhibited
- expressions of cholangiocyte/liver progenitor cell markers (TGFB1, TGFB2, ANKRD1, KRT19) (supplemented to fresh dHCGM at 50 μg/mL, vs dHCGM alone, qPCR): significantly inhibited
